Laboratory results as given in patent US7932270B2 (Cytokinetics, Inc., priority 2006, dated 2011).
pIC50: −log10 of the molar value.

Molecular target: T1, chicken gizzard smooth muscle myosin subfragment-1 chemically crosslinked to cardiac or skeletal actin (Gallus gallus, UniProt P10587)
T1 construct: chicken gizzard smooth muscle myosin subfragment-1; from tissue; host or cells: chicken gizzard
Test: Smooth muscle myosin ATPase dose response assay (pyruvate kinase/horseradish peroxidase/pyruvate oxidase-coupled, amplex red fluorescence)
Format: biochemical
Conditions: read-out: IC50 Arithmetic Mean
Procedure, shortened: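 ATPase monitored by amplex red fluorescence (ex 480/em 615 nm) via pyruvate oxidase/HRP coupling, pH 7.00, ATP 0.15 mM. Enzyme: smooth muscle S1-actin crosslinked conjugate, amount set empirically by titration. Dose-response fitted with 4-parameter Hill equation for IC50.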

T1 sequence (P02607 2-151): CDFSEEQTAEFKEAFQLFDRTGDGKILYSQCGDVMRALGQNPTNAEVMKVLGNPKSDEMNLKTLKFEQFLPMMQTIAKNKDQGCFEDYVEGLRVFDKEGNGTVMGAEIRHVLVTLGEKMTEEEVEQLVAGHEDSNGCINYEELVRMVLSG
T1 sequence (P10587 84-789): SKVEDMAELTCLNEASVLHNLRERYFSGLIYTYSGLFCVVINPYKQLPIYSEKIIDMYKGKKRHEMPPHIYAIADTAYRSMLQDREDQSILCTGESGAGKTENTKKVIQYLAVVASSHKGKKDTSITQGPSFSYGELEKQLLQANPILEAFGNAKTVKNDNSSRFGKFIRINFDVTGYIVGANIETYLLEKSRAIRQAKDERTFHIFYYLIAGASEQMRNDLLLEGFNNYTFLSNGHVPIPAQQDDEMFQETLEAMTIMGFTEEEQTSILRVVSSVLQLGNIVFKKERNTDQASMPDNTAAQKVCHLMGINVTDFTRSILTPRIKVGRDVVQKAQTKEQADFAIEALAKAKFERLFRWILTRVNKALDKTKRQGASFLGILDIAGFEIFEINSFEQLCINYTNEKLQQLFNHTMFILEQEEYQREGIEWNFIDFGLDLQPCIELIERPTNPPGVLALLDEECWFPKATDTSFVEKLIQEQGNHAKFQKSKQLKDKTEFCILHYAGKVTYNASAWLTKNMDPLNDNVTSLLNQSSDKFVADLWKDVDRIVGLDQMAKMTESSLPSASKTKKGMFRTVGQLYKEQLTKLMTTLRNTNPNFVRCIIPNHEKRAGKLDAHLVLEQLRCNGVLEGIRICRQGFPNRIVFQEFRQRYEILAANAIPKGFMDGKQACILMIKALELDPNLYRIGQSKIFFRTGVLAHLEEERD

| SMILES | pIC50 |
| --- | --- |
| N#Cc1ccccc1-c1ccc(C(=O)NCCNC(=O)CCN)c(NCCc2cccc(F)c2)n1 [3-amino-N-{2-[(6-(2-cyanophenyl)-2-{[2-(3-fluorophenyl)ethyl]amino}(3-pyridyl))carbonylamino]ethyl}propanamide] | 5.36 |
| Cn1cc(-c2nc(NCCc3cccc(F)c3)c(C(=O)NC[C@H]3CCN3C(=O)COC(=O)CNC(=O)OC(C)(C)C)cc2F)cn1 [2-((2R)-2-{[(5-fluoro-2-{[2-(3-fluorophenyl)ethyl]amino}-6-(1-methylpyrazol-4-yl)(3-pyridyl))carbonylamino]methyl}azetidinyl)-2-oxoethyl 2-[(tert-butoxy)carbonylamino]acetate] | 6.72 |
| O=C1CC[C@H](CNC(=O)c2ccc(-c3cn[nH]c3)nc2NCCc2cccc(F)c2)N1 [N-[((2R)-5-oxopyrrolidin-2-yl)methyl](2-{[2-(3-fluorophenyl)ethyl]amino}-6-pyrazol-4-yl(3-pyridyl))carboxamide] | 6.92 |
| CC(C)(C)OC(=O)NCCCC(=O)N1CCC[C@H](CNC(=O)c2ccc(-c3ccccc3C#N)nc2NCCc2cccc(F)c2)C1 [N-[((3R)-1-{4-[(tert-butoxy)carbonylamino]butanoyl}(3-piperidyl))methyl](6-(2-cyanophenyl)-2-{[2-(3-fluorophenyl)ethyl]amino}(3-pyridyl))carboxamide] | 5.21 |
| NCCCN1C(=O)CNC[C@@H]1CNC(=O)c1ccc(-c2cn[nH]c2)nc1NCCc1cccc(F)c1 [N-{[(2R)-1-(3-aminopropyl)-6-oxopiperazin-2-yl]methyl}(2-{[2-(3-fluorophenyl)ethyl]amino}-6-pyrazol-4-yl(3-pyridyl))carboxamide] | 5.63 |
| Cn1cc(-c2nc(NCCc3cccc(F)c3)c(C(=O)NC[C@H]3CCCN3)cc2F)cn1 [N-[((2R)pyrrolidin-2-yl)methyl](5-fluoro-2-{[2-(3-fluorophenyl)ethyl]amino}-6-(1-methylpyrazol-4-yl)(3-pyridyl))carboxamide] | 6.56 |
| CNC(=O)[C@@H](N)CCNC(=O)c1ccc(-c2ccccc2C#N)nc1NCCc1cccc(F)c1 [(2S)-2-amino-4-[(6-(2-cyanophenyl)-2-{[2-(3-fluorophenyl)ethyl]amino}(3-pyridyl))carbonylamino]-N-methylbutanamide] | 5.30 |
| N#Cc1ccccc1-c1ccc(C(=O)NC[C@@H]2CCCCN2C(=O)CCN)c(NCCc2cccc(F)c2)n1 [N-{[(2S)-1-(3-aminopropanoyl)(2-piperidyl)]methyl}(6-(2-cyanophenyl)-2-{[2-(3-fluorophenyl)ethyl]amino}(3-pyridyl))carboxamide] | 6.96 |
| NCc1cccc(CNC(=O)c2ccc(-c3cn[nH]c3)nc2NCCc2cccc(F)c2)n1 [N-{[6-(aminomethyl)(2-pyridyl)]methyl}(2-{[2-(3-fluorophenyl)ethyl]amino}-6-pyrazol-4-yl(3-pyridyl))carboxamide] | 6.92 |
| N#Cc1ccccc1-c1ccc(C(=O)NCC2CCCN(CCO)C2=O)c(NCCc2cccc(F)c2)n1 (centres unmarked) [(6-(2-cyanophenyl)-2-{[2-(3-fluorophenyl)ethyl]amino}(3-pyridyl))-N-{[1-(2-hydroxyethyl)-2-oxo(3-piperidyl)]methyl}carboxamide] | 7.23 |
| N#Cc1ccccc1-c1ccc(C(=O)NC[C@@H](N)C(N)=O)c(NCCc2cccc(F)c2)n1 [N-((2R)-2-amino-2-carbamoylethyl)(6-(2-cyanophenyl)-2-{[2-(3-fluorophenyl)ethyl]amino}(3-pyridyl))carboxamide] | 6.49 |
| O=C(NCc1ccccn1)c1cc(F)c(-c2cn[nH]c2)nc1NCCc1cccc(F)c1 [(5-fluoro-2-{[2-(3-fluorophenyl)ethyl]amino}-6-pyrazol-4-yl(3-pyridyl))-N-(2-pyridylmethyl)carboxamide] | 7.62 |
| O=C(NCc1cccnc1)c1c(CO)cc(-c2ccccc2)nc1NCCc1cccc(F)c1 [(2-{[2-(3-fluorophenyl)ethyl]amino}-4-(hydroxymethyl)-6-phenyl(3-pyridyl))-N-(3-pyridylmethyl)carboxamide] | 4.23 |
| N#Cc1ccccc1-c1ccc(C(=O)N[C@H]2CCNC2=O)c(NCCc2cccc(F)c2)n1 [N-((3S)-2-oxopyrrolidin-3-yl)(6-(2-cyanophenyl)-2-{[2-(3-fluorophenyl)ethyl]amino}(3-pyridyl))carboxamide] | 5.49 |
| Cn1cc(-c2ccc(C(=O)NC[C@H]3CCC(=O)N3CCCN)c(NCCc3cccc(F)c3)n2)cn1 [N-{[(2R)-1-(3-aminopropyl)-5-oxopyrrolidin-2-yl]methyl}(2-{[2-(3-fluorophenyl)ethyl]amino}-6-(1-methylpyrazol-4-yl)(3-pyridyl))carboxamide] | 6.54 |
| O=C(NCc1cccnc1)c1ccc(-c2ccccc2)nc1NCCc1ccc(F)c(F)c1 [(2-{[2-(3,4-difluorophenyl)ethyl]amino}-6-phenyl(3-pyridyl))-N-(3-pyridylmethyl)carboxamide] | 6.28 |
| CNC(=O)c1ccc(-c2ccccc2)nc1NCCc1ccccn1 [N-methyl{6-phenyl-2-[(2-(2-pyridyl)ethyl)amino](3-pyridyl)}carboxamide] | 4.56 |
| COCCCNC(=O)c1ccc(-c2ccccc2C#N)nc1NCCc1cccc(F)c1 [(6-(2-cyanophenyl)-2-{[2-(3-fluorophenyl)ethyl]amino}(3-pyridyl))-N-(3-methoxypropyl)carboxamide] | 6.40 |

The remaining compounds from weak to strong by pIC50, led by results:

| pIC50 | SMILES |
| --- | --- |
| 4.79 | NC(=O)c1ccccc1-c1ccc(C(=O)NCc2cccnc2)c(NCCc2cccc(F)c2)n1 [2-(6-{[2-(3-fluorophenyl)ethyl]amino}-5-[N-(3-pyridylmethyl)carbamoyl]-2-pyridyl)benzamide] |
| 4.83 | COc1cccc(-c2ccc(C(=O)NCc3cccnc3)c(NCCc3ccccn3)n2)c1 [{6-(3-methoxyphenyl)-2-[(2-(2-pyridyl)ethyl)amino](3-pyridyl)}-N-(3-pyridylmethyl)carboxamide] |
| 5.19 | O=C1CNC[C@@H](CNC(=O)c2ccc(-c3cc[nH]n3)nc2NCCc2cccc(F)c2)N1 [N-[((2S)-6-oxopiperazin-2-yl)methyl](2-{[2-(3-fluorophenyl)ethyl]amino}-6-pyrazol-3-yl(3-pyridyl))carboxamide] |
| 5.23 | C[C@@H](CNC(=O)c1ccc(-c2ccccc2C#N)nc1NCCc1cccc(F)c1)N(C)S(C)(=O)=O [N-{(2S)-2-[methyl(methylsulfonyl)amino]propyl}(6-(2-cyanophenyl)-2-{[2-(3-fluorophenyl)ethyl]amino}(3-pyridyl))carboxamide] |
| 6.15 | C[C@H](CNC(=O)c1ccc(-c2ccccc2C#N)nc1NCCc1cccc(F)c1)N(C)C(=O)CCCN |
| 6.18 | COC(=O)CCC(=O)N1CCC[C@@H]1CNC(=O)c1ccc(-c2ccccc2C#N)nc1NCCc1cccc(F)c1 [methyl 4-((2R)-2-{[(6-(2-cyanophenyl)-2-{[2-(3-fluorophenyl)ethyl]amino}(3-pyridyl))carbonylamino]methyl}pyrrolidinyl)-4-oxobutanoate] |
| 6.34 | N#Cc1ccccc1-c1ccc(C(=O)NC[C@H]2CCCCN2C(=O)[C@H](N)CCCN)c(NCCc2cccc(F)c2)n1 [N-{[(2R)-1-((2R)-2,5-diaminopentanoyl)(2-piperidyl)]methyl}(6-(2-cyanophenyl)-2-{[2-(3-fluorophenyl)ethyl]amino}(3-pyridyl))carboxamide] |
| 6.49 | CC(C)(CNC(=O)c1ccc(-c2ccccc2C#N)nc1NCCc1cccc(F)c1)NC(=O)CN |
| 6.51 | N#Cc1ccccc1-c1ccc(C(=O)NCCc2ncccc2CN)c(NCCc2cccc(F)c2)n1 [N-{2-[3-(aminomethyl)(2-pyridyl)]ethyl}(6-(2-cyanophenyl)-2-{[2-(3-fluorophenyl)ethyl]amino}(3-pyridyl))carboxamide] |
| 6.60 | CNC(=O)CNC(=O)c1ccc(-c2ccc(CO)s2)nc1NCCc1cccc(F)c1 [2-[(2-{[2-(3-fluorophenyl)ethyl]amino}-6-[5-(hydroxymethyl)(2-thienyl)](3-pyridyl))carbonylamino]-N-methylacetamide] |
| 6.64 | Cn1cc(-c2ccc(C(=O)NCc3ccnn3CCCN)c(NCCc3cccc(F)c3)n2)cn1 [N-{[1-(3-aminopropyl)pyrazol-5-yl]methyl}(2-{[2-(3-fluorophenyl)ethyl]amino}-6-(1-methylpyrazol-4-yl)(3-pyridyl))carboxamide] |
| 6.96 | N#Cc1ccccc1-c1nc(NCCc2cccc(F)c2)c(C(=O)NC[C@H]2CCCN2C(=O)C(O)CO)cc1F (stereo partly drawn) [N-{[(2R)-1-(2,3-dihydroxypropanoyl)pyrrolidin-2-yl]methyl}(6-(2-cyanophenyl)-5-fluoro-2-{[2-(3-fluorophenyl)ethyl]amino}(3-pyridyl))carboxamide] |
| 6.97 | NCC(=O)N1CCC[C@@H]1CNC(=O)c1cc(F)c(-c2cc[nH]n2)nc1NCCc1cccc(F)c1 [N-{[(2R)-1-(2-aminoacetyl)pyrrolidin-2-yl]methyl}(5-fluoro-2-{[2-(3-fluorophenyl)ethyl]amino}-6-pyrazol-3-yl(3-pyridyl))carboxamide] |
| 7.05 | C[C@H](CO)CNC(=O)c1cc(F)c(-c2cnn(C)c2)nc1NCCc1cccc(F)c1 [N-((2S)-3-hydroxy-2-methylpropyl)(5-fluoro-2-{[2-(3-fluorophenyl)ethyl]amino}-6-(1-methylpyrazol-4-yl)(3-pyridyl))carboxamide] |
| 7.30 | C[C@@H](CO)CNC(=O)c1cc(F)c(-c2cnn(C)c2)nc1NCCc1cccc(F)c1 [N-((2R)-3-hydroxy-2-methylpropyl)(5-fluoro-2-{[2-(3-fluorophenyl)ethyl]amino}-6-(1-methylpyrazol-4-yl)(3-pyridyl))carboxamide] |
| 7.33 | NCCCC(=O)N1CCC[C@@H]1CNC(=O)c1cc(F)c(-c2cn[nH]c2)nc1NCCc1cccc(F)c1 [N-{[(2R)-1-(4-aminobutanoyl)pyrrolidin-2-yl]methyl}(5-fluoro-2-{[2-(3-fluorophenyl)ethyl]amino}-6-pyrazol-4-yl(3-pyridyl))carboxamide] |
| 7.92 | NCc1ncccc1CNC(=O)c1cc(F)c(-c2cn[nH]c2)nc1NCCc1cccc(F)c1 [N-{[2-(aminomethyl)(3-pyridyl)]methyl}(5-fluoro-2-{[2-(3-fluorophenyl)ethyl]amino}-6-pyrazol-4-yl(3-pyridyl))carboxamide] |
